Reference: PMC8147781, “Discovery of Pyrrolidine-2,3-diones as Novel Inhibitors of P. aeruginosa PBP3” (Antibiotics, 2021)
Converted amounts (≈) assume the structure as drawn.

Key:
A. baumannii ATCC15308 = experiment: MIC broth microdilution, A. baumannii; type: cell-based; conditions: 10 µg/mL PMBN
Summary of the method: (§1)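 CLSI broth microdilution in cation-adjusted Mueller Hinton broth, 5 × 10^4 bacteria per well with 1:2 serial compound dilutions, PMBN added where applicable. MIC read visually after 18 h at 37 °C. Confirmation by 10% PrestoBlue, fluorescence at Ex/Em 550/595 nm after 30 min.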

E. coli Neumann = experiment: MIC broth microdilution, E. coli; type: cell-based; conditions: Escherichia coli; Table S3; read-out: MIC (µM) E. coli Neumann
Summary of the method: as §1

[1] = test system: K. pneumoniae clinical isolate; experiment: MIC broth microdilution, K. pneumoniae; type: cell-based; conditions: Klebsiella pneumoniae; Table S3
Summary of the method: as §1

[2] = target: T1, PBP3 of P. aeruginosa (PaPBP3) (Pseudomonas aeruginosa, UniProt G3XD46); experiment: S2dfluo fluorescence transpeptidase assay; type: biochemical; conditions: 300 nM PaPBP3, 30 min preincubation, 37 °C; for IC50: read-out: IC50 Determination with PaPBP3, S2dfluo Assay
T1 construct: P. aeruginosa PBP3 (amino acids 40 to 563); His-tag; made in house; host or cells: E. coli BL21 (DE3) Rosetta, plasmid pET41_PBP-3
Description: The assays were carried out in the presence of 5% DMSO and 0.01% Triton X100 to avoid the formation of colloidal structures and adsorption of protein and/or compounds to surfaces. The Z’-factor determined for the assay was 0.73 ± 0.28, indicating the suitability and robustness of the assay for high throughput screening (HTS) (Figure 1B,C).
The activity of soluble ^PaPBP3 (300 nM) was measured in the presence of 0.8 mM S2d, 1 mM D-alanine and 0.5 mM mBBr for 25 min by monitoring the increase in the fluorescence intensity of mBBr at Ex/Em: 394/490 nm using an Infinite M1000 microplate reader (Tecan, Männedorf, Switzerland). To test the effect of inhibitors, 100 µM or 0.8 to 100 µM of compounds diluted in 96% DMSO were incubated for 30 min and 450 rpm with 300 nM soluble PBP3. The incubation period was set to improve the binding of non-covalent inhibitors and 0.01% Triton X100 (Sigma-Aldrich, Taufkirchen, Germany) was added to prevent aggregation of compounds. The enzyme reaction was started by adding a substrate mix of 0.8 mM S2d and […]. The enzyme, compound and substrate mix were mixed 1:1, pipetted with a Liquidator 96 (Melter Toledo, Gießen, Germany) and the fluorescence intensity was directly monitored with an Infinite M1000 microplate reader (Tecan) at Ex/Em: 394/490 nm. The assay was performed in black, flat-bottom 96-well microplates (Greiner Bio-One, Kremsmünster, Austria) at 37 °C in Sorensen Phosphate Buffer (57 mM Na2HPO4 and 10 mM KH2PO4, pH 7.5 + 0.01% Triton X-100). The velocity of the PBP3 reaction was calculated in the presence of each concentration of compound and the velocity values were used to estimate IC50 by sigmoidal nonlinear regression, using Prism v.9 software (San Diego, CA, USA) and the velocity of the reaction at each concentration.

S. aureus 133 = experiment: MIC broth microdilution, S. aureus; type: cell-based; conditions: Staphylococcus aureus, 133; Table S3
Summary of the method: as §1

[3] = test system: T-lymphoblast CCRF-CEM cell line; experiment: Cytotoxicity assay (PrestoBlue), CCRF-CEM; conditions: for Cytotoxicity CCRF-CEM: CC50, 72 h; for cytotoxic potential at the tested cell lines: four cell lines: NRK-52E, Hep G2, CCRF-CEM, H9
Description: (§2) We finally tested the cytotoxicity of the compounds against four eukaryotic cell lines (Table 2 and Table S5), NRK-52E, an epithelial kidney cell line of Rattus norvegicus; Hep G2, an human epithelial liver cell line; and two suspension cell lines: CCRF-CEM, a T lymphoblast; and H9, a cutaneous T lymphocyte cell line.
(§3) Cell lines stored at −120 °C were thawed to 37 °C and resuspended in 10 mL of medium pre-warmed to 37 °C. Cells were pelleted at 300× g for 10 min, and then resuspended in fresh medium, seeded in a T-75 culture flask, and placed in a CO2 incubator (37 °C with 5% CO2 tension). Once the cells reached approximately 70–80% confluency, they were then passaged regularly. The adherent cell lines NRK52E, HepG2 and Huh 7 were washed once with 10 mL DPBS and detached with Trypsin-EDTA for 5 to 7 min and resuspended in 15 mL of the appropriate medium. The suspension cell line CCRF-CEM were diluted and resuspended in fresh RPMI 1640 PAN medium. To calculate the cell density, the cell resuspensions were diluted 1:6 with DPBS. Equal volumes of cell suspension and Trypan Blue were mixed and gently loaded into a haemocytometer (INCYTO, 31056 Republic of Korea). In each experiment, cell concentrations were adjusted to reach a concentration of 2.5 × 10^3 cell/well for NRK52E, 5 × 10^3 cell/well for HepG2, 6.2 × 10^4 cell/well for CCRF-CEM and 3 × 10^3 for H9. The cells were incubated with decreasing concentration of compounds (1 µL in 96% DMSO) for 72 h at 37 °C with 5% CO2 tension. Cycloheximide, a cytotoxic compound that interferes with the translocation step in eukaryotic protein synthesis was used as a control for the experiments. The assay was carried out in flat-bottom, transparent 96-well plates. Cell viability was determined using the PrestoBlue reagent (Thermo Fisher Scientific, Waltham, MA, USA) according to the manufacture’s protocol. First, 10× PrestoBlue was added to each well to obtain a 1× solution, and incubated at 37 °C for 45 min. Then, fluorescence was measured at Ex/Em: 550/595 nm using a ClarioStar microplate reader (BMG Labtech). Cytotoxicity was determined as the percentage of the difference in absorbance of the untreated sample to the treated sample. CC50 was calculated using the values obtained in each concentration using the sigmoidal dose-response by Prism v.8. The media used in each cell line is detailed in Table S6.

[4] = test system: Hep G2, epithelial liver cell line; experiment: Cytotoxicity assay (PrestoBlue), HepG2; conditions: CC50, 72 h
Description: as §2, §3

[5] = test system: NRK-52E, epithelial kidney cell line; experiment: Cytotoxicity assay (PrestoBlue), NRK52E; conditions: CC50, 72 h
Description: as §2, §3

T1 sequence (G3XD46 40-563): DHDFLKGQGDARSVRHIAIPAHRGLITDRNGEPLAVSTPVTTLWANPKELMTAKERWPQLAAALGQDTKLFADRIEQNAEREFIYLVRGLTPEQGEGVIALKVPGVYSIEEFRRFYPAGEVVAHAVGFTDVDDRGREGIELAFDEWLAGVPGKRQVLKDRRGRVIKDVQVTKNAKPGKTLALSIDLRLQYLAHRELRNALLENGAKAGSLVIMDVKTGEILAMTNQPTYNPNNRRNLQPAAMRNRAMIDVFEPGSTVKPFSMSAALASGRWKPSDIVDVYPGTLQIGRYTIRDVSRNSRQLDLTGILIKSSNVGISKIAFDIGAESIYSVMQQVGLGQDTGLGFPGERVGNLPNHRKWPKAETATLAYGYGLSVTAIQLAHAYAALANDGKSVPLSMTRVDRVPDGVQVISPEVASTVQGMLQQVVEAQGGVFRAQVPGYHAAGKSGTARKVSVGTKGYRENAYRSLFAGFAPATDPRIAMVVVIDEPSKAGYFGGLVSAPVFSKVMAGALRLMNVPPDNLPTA

| SMILES | MIC (µM) A. baumanii ATCC15308 (A. baumannii ATCC15308) [µM] | MIC (E. coli Neumann) [µM] | MIC [1] [µM] | IC50 [2] [µM] | MIC (S. aureus 133) [µM] | Cytotoxicity CCRF-CEM [3] [µM] | cytotoxic potential at the tested cell lines [3] | Cytotoxicity effect (µM) Epithelial liver HepG2 [4] [µM] | Cytotoxicity effect (µM) Epithelial kidney NRK52E [5] [µM] | IC50 Determination with PaPBP3, S2dfluo Assay [2] |
| --- | --- | --- | --- | --- | --- | --- | --- | --- | --- | --- |
| O=C(C1=C(O)C(=O)N(CCc2cc3ccccc3[nH]2)C1c1ccc(Cl)cc1)c1ccc(Br)cc1 (stereo not drawn) [Compound 37] | > 100 | > 100 | > 100 | 16 ± 8 | 6.25 (≈ 3.35 µg/mL) | 8 ± 6 | high cytotoxic potential | 20 ± 4 | 9 ± 12 |  |
| O=C(C1=C(O)C(=O)N(Cc2nc3ccccc3[nH]2)C1c1ccc(Cl)cc1)c1ccc(Br)cc1 (stereo not drawn) [Compound 38] | > 100 | > 100 | > 100 | 100 ± 11 | > 100 | >100 |  | > 100 | > 100 | drastic loss of the inhibitory activity |
| O=C(C1=C(O)C(=O)N(CCc2c[nH]c3ccccc23)C1c1ccc(Cl)cc1)c1ccc(Br)cc1 (stereo not drawn) [Compound 40] | > 100 | > 100 | > 100 | 8 ± 4 | > 100 | 93 ± 4 |  | > 100 | > 100 |  |
| O=C(C1=C(O)C(=O)N(Cc2ccco2)C1c1ccc(Cl)cc1)c1ccc(Br)cc1 (stereo not drawn) [Compound 41, 4-(4-bromobenzoyl)-5-(4-chlorophenyl)-1-(furan-2-ylmethyl)-3-hydroxy-5H-pyrrol-2-one] | > 100 | > 100 | > 100 | > 100 | > 100 | >100 |  | > 100 | > 100 | abolished the inhibitory activity |
| O=C(C1=C(O)C(=O)N(Cc2cscn2)C1c1ccc(Cl)cc1)c1ccc(Br)cc1 (stereo not drawn) [Compound 42] | > 100 | > 100 | > 100 | > 100 | > 100 | >100 |  | > 100 | > 100 | abolished the inhibitory activity |
| O=C(C1=C(N2CCOCC2)C(=O)N(Cc2cccc(F)c2)C1c1ccc(Cl)cc1)c1ccc(Br)cc1 (stereo not drawn) [Compound 44, 4-(4-bromobenzoyl)-5-(4-chlorophenyl)-1-[(3-fluorophenyl)methyl]-3-(morpholin-4-yl)-5H-pyrrol-2-one] | > 100 | > 100 | > 100 | > 100 | > 100 | > 100 |  | > 100 | 52 ± 3 |  |
| CCNC1=C(C(=O)c2ccc(Br)cc2)C(c2ccc(Cl)cc2)N(Cc2c[nH]c3ccccc23)C1=O (stereo not drawn) [Compound 45] | > 100 | > 100 | > 100 | > 100 | 6.25 (≈ 3.43 µg/mL) |  | high cytotoxic potential | 23 ± 8 | 23 ± 11 |  |
